From ChEMBL document CHEMBL5034037, “Synthesis, Characterization, and Preclinical Evaluation of a Small-Molecule Prostate-Specific Membrane Antigen-Targeted Monomethyl Auristatin E Conjugate” (J Med Chem, 2021)
“And” between values parts separate entries of the source, which are not always exact repeats. Equal entries are not always repeated. *1 amine or outer side, *2 acyl side, *3 side chain or, on linkers, in order; H or OH if unused. Where a SMILES comes first, the peptide text is derived from it. [ ]: non-standard residue; d: D form. The star is where a group is joined. GluureaLys(ε-3-ClBenzyl) = O=C(O)CC[C@H](NC(=O)N[C@@H](CCCCN(Cc1cccc(Cl)c1)*)C(=O)O)C(=O)O; Dolaproine = CO[C@@H]([C@@H]1CCCN1)[C@@H](C)C(=O)O; Dil = CC[C@H](C)[C@H](NC)[C@@H](CC(=O)O)OC; X1 = O=C(CCCc1cn(CCCN[*:1])nn1)[*:2]; PABC = O=C(OCc1ccc(N[*:1])cc1)[*:2]; X2 = C[C@@H](N*)[C@@H](O)c1ccccc1; Cit = NC(=O)NCCC[C@H](N)C(=O)O; Suc = O=C(CCC(=O)[*:2])[*:1]; NMeV = CN[C@H](C(=O)O)C(C)C; Ahx = NCCCCCC(=O)O

Legend:
[1] = AUC (0 to infinity) in Wistar rat at 1.5 mg/kg, iv; assay type: ADME, organism-based; parameters: time infinity, route intravenous, dose 1.5 mg/kg; settings: in vivo
[2] = AUC (0 to t) in Wistar rat at 1.5 mg/kg, iv; assay type: ADME, organism-based; parameters: dose 1.5 mg/kg; settings: in vivo
[3] = Stability of compound in pH 7.4 assessed as hydrolysis measured within 96 hrs; assay type: physicochemical; settings: buffer, pH 7.4, 96 h
[4] = Acute toxicity in iv dosed ICR mouse assessed as median mortality dose; assay type: organism-based; settings: in vivo
[5] = Acute toxicity in iv dosed Wistar rat assessed as median mortality dose; assay type: organism-based; settings: in vivo
[6] = Toxicity in rat assessed as morphological changes in mucosae of mouth at 150 to 225 microg/kg, iv; assay type: tissue-based; settings: in vivo, dose 150-225 µg/kg
[7] = Toxicity in rat assessed as morphological changes in abdominal cavity at 150 to 225 microg/kg, iv; settings: in vivo, dose 150-225 µg/kg
[8] = Toxicity in rat assessed as morphological changes in gastric wall mucosa at 150 to 225 microg/kg, iv; settings: in vivo, dose 150-225 µg/kg
[9] = Toxicity in rabbit assessed as morphological changes in bronchi at 81 to 122 microg/kg, iv; parameters: species or system Oryctolagus cuniculus; settings: in vivo, dose 81-122 µg/kg
[10] = Toxicity in rat assessed as morphological changes in adrenal gland at 150 to 225 microg/kg, iv; assay type: tissue-based; settings: in vivo, dose 150-225 µg/kg
[11] = Toxicity in rabbit assessed as morphological changes in brain sulcus at 81 to 122 microg/kg, iv; assay type: tissue-based, Oryctolagus cuniculus; settings: in vivo, dose 81-122 µg/kg
[12] = Toxicity in rabbit assessed as morphological changes in spleen pulp at 81 to 122 microg/kg, iv; assay type: tissue-based, Oryctolagus cuniculus; settings: in vivo, dose 81-122 µg/kg
[13] = Toxicity in rabbit assessed as morphological changes in aortic intima at 81 to 122 microg/kg, iv; parameters: species or system Oryctolagus cuniculus; settings: in vivo, dose 81-122 µg/kg
[14] = Toxicity in rat assessed as morphological changes in aortic intima at 150 to 225 microg/kg, iv; settings: in vivo, dose 150-225 µg/kg
[15] = Toxicity in rat assessed as morphological changes in urinary bladder at 150 to 225 microg/kg, iv; settings: in vivo, dose 150-225 µg/kg
[16] = Toxicity in rabbit assessed as morphological changes in urinary bladder at 81 to 122 microg/kg, iv; parameters: species or system Oryctolagus cuniculus; settings: in vivo, dose 81-122 µg/kg
[17] = Toxicity in rabbit assessed as morphological changes in testes at 81 to 122 microg/kg, iv; parameters: species or system Oryctolagus cuniculus; settings: in vivo, dose 81-122 µg/kg
[18] = Toxicity in rabbit assessed as histological change in spermatagonia in seminiferous tubule in testes at 81 to 122 microg/kg, iv; parameters: species or system Oryctolagus cuniculus; settings: in vivo, dose 81-122 µg/kg
[19] = Initial plasma concentration in rabbit plasma at 0.81 mg/kg, iv; assay type: ADME, organism-based, Oryctolagus cuniculus
[20] = Elimination rate constant in Wistar rat at 1.5 mg/kg, iv; assay type: ADME, organism-based; settings: in vivo
[21] = Volume of distribution in Wistar rat at 1.5 mg/kg, iv; assay type: ADME, organism-based; settings: in vivo
Cytochrome P450 3A4 = Cytochrome P450 3A4 (Homo sapiens, UniProt P08684); experiment: Inhibition of CYP3A4 in human liver microsome using midazolam as substrate; assay type: ADME, microsomes
Cytochrome P450 2C19 [22] = biological target: T1, Cytochrome P450 2C19 (Homo sapiens, UniProt P33261); experiment: Inhibition of CYP2C19 in human liver microsome using mephenytoin as substrate; assay type: ADME, microsomes
Cytochrome P450 2D6 = Cytochrome P450 2D6 (Homo sapiens, UniProt P10635); experiment: Inhibition of CYP2D6 in human liver microsome using dextromethorphan as substrate; assay type: ADME, microsomes
[23] = Stability of the compound in human liver microsome; assay type: ADME; settings: microsomes
[24] = Stability of the compound in mouse liver microsome assessed as half life; assay type: ADME; settings: liver microsomes
Cytochrome P450 2C19 [25] = biological target: T1, Cytochrome P450 2C19; experiment: Drug metabolism assessed as human liver microsome CYP2C19-mediatd metabolism; assay type: ADME; settings: microsomes
Cytochrome P450 1A2 = biological target: T2, Cytochrome P450 1A2 (Homo sapiens, UniProt P05177); experiment: Drug metabolism assessed as human liver microsome CYP1A2-mediatd metabolism; assay type: ADME; settings: microsomes
T2 sequence (P05177 whole entry): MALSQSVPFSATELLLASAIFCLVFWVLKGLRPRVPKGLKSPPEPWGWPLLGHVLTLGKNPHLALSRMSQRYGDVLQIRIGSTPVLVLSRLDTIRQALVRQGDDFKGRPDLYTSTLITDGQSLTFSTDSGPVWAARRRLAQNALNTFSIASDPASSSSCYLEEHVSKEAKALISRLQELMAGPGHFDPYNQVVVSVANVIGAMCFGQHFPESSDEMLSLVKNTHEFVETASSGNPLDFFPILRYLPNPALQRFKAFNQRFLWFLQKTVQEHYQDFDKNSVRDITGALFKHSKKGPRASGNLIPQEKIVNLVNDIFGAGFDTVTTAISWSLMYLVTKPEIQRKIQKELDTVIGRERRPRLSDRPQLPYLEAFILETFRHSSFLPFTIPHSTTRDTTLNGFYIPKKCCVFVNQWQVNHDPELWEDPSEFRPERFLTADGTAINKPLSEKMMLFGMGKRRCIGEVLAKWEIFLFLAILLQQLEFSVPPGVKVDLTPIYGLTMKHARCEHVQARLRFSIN

Salmonella typhimurium [26] = experiment: Mutagenecity in Salmonella typhimurium TA100 in presence of metabolic activation system at 1000 ug/ml by Ames test; assay type: toxicity, organism-based; settings: salmonella enterica subsp. enterica serovar typhimurium; dose 1000 µg/ml
Salmonella typhimurium [27] = experiment: Mutagenecity in Salmonella typhimurium TA98 in presence of metabolic activation system at 1000 ug/ml by Ames test; assay type: toxicity, organism-based; settings: salmonella enterica subsp. enterica serovar typhimurium; dose 1000 µg/ml
Salmonella typhimurium [28] = experiment: Mutagenecity in Salmonella typhimurium TA97 in presence of metabolic activation system at 10000 ug/ml by Ames test; assay type: toxicity, organism-based; settings: salmonella enterica subsp. enterica serovar typhimurium; dose 10000 µg/ml
Salmonella typhimurium [29] = experiment: Mutagenecity in Salmonella typhimurium TA97 without metabolic activation system at 100 ug/ml by Ames test; assay type: toxicity, organism-based; settings: salmonella enterica subsp. enterica serovar typhimurium; dose 100 µg/ml
Salmonella typhimurium [30] = experiment: Mutagenecity in Salmonella typhimurium TA100 without metabolic activation system at 10 ug/ml by Ames test; assay type: toxicity, organism-based; settings: salmonella enterica subsp. enterica serovar typhimurium; dose 10 µg/ml
Salmonella typhimurium [31] = experiment: Mutagenecity in Salmonella typhimurium TA97 without metabolic activation system at 10 ug/ml by Ames test; assay type: toxicity, organism-based; settings: salmonella enterica subsp. enterica serovar typhimurium; dose 10 µg/ml
[32] = Stability of compound at pH 5.6 assessed as recombinant cathepsin B mediated hydrolysis by measuring MMAE release by HPLC-MS analysis; assay type: physicochemical; settings: buffer
[33] = Toxicity in rabbit assessed as traumatic vein injury at 81 to 122 microg/kg, iv; assay type: tissue-based, Oryctolagus cuniculus; settings: in vivo, dose 81-122 µg/kg
[34] = Toxicity in rabbit assessed as thrombosis at 81 to 122 microg/kg, iv; parameters: species or system Oryctolagus cuniculus; settings: in vivo, dose 81-122 µg/kg

T1 sequence (P33261 whole entry): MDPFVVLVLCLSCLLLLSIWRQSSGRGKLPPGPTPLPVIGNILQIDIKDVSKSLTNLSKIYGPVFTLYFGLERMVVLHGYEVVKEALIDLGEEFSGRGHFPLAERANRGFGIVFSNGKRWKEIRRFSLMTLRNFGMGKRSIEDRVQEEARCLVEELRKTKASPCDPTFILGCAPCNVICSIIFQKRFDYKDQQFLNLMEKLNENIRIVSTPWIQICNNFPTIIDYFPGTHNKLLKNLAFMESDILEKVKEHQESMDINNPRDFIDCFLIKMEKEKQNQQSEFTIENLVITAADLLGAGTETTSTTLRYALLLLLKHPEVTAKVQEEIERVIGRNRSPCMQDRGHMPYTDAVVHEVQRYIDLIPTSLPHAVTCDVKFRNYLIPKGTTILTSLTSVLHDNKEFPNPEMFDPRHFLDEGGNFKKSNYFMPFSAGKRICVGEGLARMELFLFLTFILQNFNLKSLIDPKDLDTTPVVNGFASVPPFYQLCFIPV
Cytochrome P450 2D6, sequence (P10635 whole entry): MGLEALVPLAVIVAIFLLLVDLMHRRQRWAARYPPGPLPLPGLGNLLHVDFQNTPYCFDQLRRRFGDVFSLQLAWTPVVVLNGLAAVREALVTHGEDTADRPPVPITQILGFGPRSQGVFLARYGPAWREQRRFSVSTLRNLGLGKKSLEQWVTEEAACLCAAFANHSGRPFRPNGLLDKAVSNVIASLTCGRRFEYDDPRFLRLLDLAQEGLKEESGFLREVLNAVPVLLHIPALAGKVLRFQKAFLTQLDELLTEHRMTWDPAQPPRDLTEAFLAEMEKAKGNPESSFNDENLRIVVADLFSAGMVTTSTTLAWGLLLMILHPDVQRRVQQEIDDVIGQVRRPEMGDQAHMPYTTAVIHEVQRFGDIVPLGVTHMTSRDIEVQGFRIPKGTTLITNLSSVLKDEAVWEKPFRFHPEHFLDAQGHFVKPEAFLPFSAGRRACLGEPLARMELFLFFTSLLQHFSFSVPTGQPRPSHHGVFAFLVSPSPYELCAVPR
Cytochrome P450 3A4, sequence (P08684 whole entry): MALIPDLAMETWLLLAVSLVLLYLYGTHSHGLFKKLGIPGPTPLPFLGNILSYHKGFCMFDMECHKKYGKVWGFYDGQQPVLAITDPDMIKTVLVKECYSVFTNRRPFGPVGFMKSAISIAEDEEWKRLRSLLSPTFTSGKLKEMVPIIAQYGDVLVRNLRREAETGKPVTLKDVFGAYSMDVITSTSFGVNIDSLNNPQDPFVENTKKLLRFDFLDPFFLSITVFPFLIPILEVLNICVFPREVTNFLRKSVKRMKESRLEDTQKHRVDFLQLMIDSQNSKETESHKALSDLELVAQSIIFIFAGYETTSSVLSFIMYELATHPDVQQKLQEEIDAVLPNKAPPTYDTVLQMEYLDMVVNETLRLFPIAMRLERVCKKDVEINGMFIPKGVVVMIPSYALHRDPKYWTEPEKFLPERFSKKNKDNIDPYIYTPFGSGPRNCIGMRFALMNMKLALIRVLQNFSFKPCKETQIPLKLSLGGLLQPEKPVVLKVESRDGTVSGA

CC[C@H](C)[C@@H]([C@@H](CC(=O)N1CCC[C@H]1[C@H](OC)[C@@H](C)C(=O)N[C@H](C)[C@@H](O)c1ccccc1)OC)N(C)C(=O)[C@@H](NC(=O)[C@H](C(C)C)N(C)C(=O)OCc1ccc(NC(=O)[C@H](CCCNC(N)=O)NC(=O)[C@@H](NC(=O)CCCc2cn(CCCNC(=O)[C@H](Cc3ccc(O)cc3)NC(=O)[C@H](Cc3ccccc3)NC(=O)CCC(=O)NCCCCCC(=O)N(CCCC[C@H](NC(=O)N[C@@H](CCC(=O)O)C(=O)O)C(=O)O)Cc3cccc(Cl)c3)nn2)C(C)C)cc1)C(C)C ({GluureaLys(ε-3-ClBenzyl)-Ahx-Suc}-FY[X1]V[Cit][PABC][NMeV]V[Dil][Dolaproine]-X2)
AUC(0-inf) [1]: 88000 ng·h/mL
AUC(0-t) [2]: 76000 ng·h/mL
Stability [3]: Stable
LD50 [4]: 6.3 mg/kg and 2.7 µmol/kg
LD50 [5]: 4.9 mg/kg and 2.2 µmol/kg
Activity [6]: Non-Toxic
Activity [7]: Non-Toxic
Activity [8]: Non-Toxic
Activity [9]: Non-Toxic
Activity [10]: Non-Toxic
Activity [11]: Non-Toxic
Activity [12]: Non-Toxic
Activity [13]: Non-Toxic
Activity [14]: Non-Toxic
Activity [15]: Non-Toxic
Activity [16]: Non-Toxic
Activity [17]: Non-Toxic
Activity [18]: Toxic
C0 [19]: 11000 ng/mL
k el [20]: 4.17e-05 s⁻¹
Vd [21]: 0.126 L/kg
IC50 (Cytochrome P450 3A4): 11.2 µM
IC50 (Cytochrome P450 2C19 [22]): > 25 µM
IC50 (Cytochrome P450 2D6): > 25 µM
Stability [23]: Unstable
half-life [24]: 27.4 min
Drug metabolism (Cytochrome P450 2C19 [25]): Metabolite_Notdetected
Drug metabolism (Cytochrome P450 1A2): Metabolite_Notdetected
Activity (Salmonella typhimurium [26]): Non-Toxic
Activity (Salmonella typhimurium [27]): Non-Toxic
Activity (Salmonella typhimurium [28]): Non-Toxic
Activity (Salmonella typhimurium [29]): Non-Toxic
Activity (Salmonella typhimurium [30]): Non-Toxic
Activity (Salmonella typhimurium [31]): Non-Toxic
Stability [32]: Unstable
Activity [33]: Toxic
Activity [34]: Toxic
